Biological target: ALK kinase (Homo sapiens, UniProt Q9UM73)
Test: Test to measure ALK kinase inhibition (GST-PLCγ1 substrate, anti-phosphotyrosine ELISA, luminescence)
Format: biochemical
Conditions: ALK kinase 180 ng/ml, 250 μM ATP, 30 minutes at 30° C.
Description: Test to Measure ALK Kinase Inhibition
A ViewPlate (Packard) is incubated with the GST-PLCγ1 substrate (purified recombinant form) at 0.1 mg/ml in phosphate buffer (PBS pH 7.4)(100 μl/well) for one hour under shaking. The plate is then saturated with a blocking solution containing 5% bovine serum albumin (BSA) (SIGMA) in PBS buffer pH 7.4.
After adding the inhibitor at the desired final concentration (usual range of 30 μM to 10 nM), the reaction is conducted by adding the ALK kinase at 180 ng/ml in 13 mM Tris reaction buffer pH 7.5 (SIGMA); 6.5 mM MgCl2 (MERCK); 0.65 mM DiThioThreitol (DTT) (ACROS); 39 mM sodium β-glycerophosphate (TCI); 0.65 mM sodium orthovanadate (SIGMA) and 250 μM ATP (SIGMA). Incubation is carried out for 30 minutes at 30° C. under shaking.
After three washings under shaking in 0.1% PBS/Tween-20 buffer (SIGMA), an anti-phosphotyrosine antibody coupled with HRP (UBI) diluted to 1/1000th in PBS/BSA buffer 5 mg/ml, is incubated for one hour under shaking. After three further washings in 0.1% PBS/Tween-20, the wells are incubated two minutes with 100 μl of SuperSignal ELISA mixture (PIERCE).
The signal is read in luminescent mode using a luminometer (MOLECULAR DEVICES SpectraMax M5e).

Sequence of ALK kinase (Q9UM73 19-1620): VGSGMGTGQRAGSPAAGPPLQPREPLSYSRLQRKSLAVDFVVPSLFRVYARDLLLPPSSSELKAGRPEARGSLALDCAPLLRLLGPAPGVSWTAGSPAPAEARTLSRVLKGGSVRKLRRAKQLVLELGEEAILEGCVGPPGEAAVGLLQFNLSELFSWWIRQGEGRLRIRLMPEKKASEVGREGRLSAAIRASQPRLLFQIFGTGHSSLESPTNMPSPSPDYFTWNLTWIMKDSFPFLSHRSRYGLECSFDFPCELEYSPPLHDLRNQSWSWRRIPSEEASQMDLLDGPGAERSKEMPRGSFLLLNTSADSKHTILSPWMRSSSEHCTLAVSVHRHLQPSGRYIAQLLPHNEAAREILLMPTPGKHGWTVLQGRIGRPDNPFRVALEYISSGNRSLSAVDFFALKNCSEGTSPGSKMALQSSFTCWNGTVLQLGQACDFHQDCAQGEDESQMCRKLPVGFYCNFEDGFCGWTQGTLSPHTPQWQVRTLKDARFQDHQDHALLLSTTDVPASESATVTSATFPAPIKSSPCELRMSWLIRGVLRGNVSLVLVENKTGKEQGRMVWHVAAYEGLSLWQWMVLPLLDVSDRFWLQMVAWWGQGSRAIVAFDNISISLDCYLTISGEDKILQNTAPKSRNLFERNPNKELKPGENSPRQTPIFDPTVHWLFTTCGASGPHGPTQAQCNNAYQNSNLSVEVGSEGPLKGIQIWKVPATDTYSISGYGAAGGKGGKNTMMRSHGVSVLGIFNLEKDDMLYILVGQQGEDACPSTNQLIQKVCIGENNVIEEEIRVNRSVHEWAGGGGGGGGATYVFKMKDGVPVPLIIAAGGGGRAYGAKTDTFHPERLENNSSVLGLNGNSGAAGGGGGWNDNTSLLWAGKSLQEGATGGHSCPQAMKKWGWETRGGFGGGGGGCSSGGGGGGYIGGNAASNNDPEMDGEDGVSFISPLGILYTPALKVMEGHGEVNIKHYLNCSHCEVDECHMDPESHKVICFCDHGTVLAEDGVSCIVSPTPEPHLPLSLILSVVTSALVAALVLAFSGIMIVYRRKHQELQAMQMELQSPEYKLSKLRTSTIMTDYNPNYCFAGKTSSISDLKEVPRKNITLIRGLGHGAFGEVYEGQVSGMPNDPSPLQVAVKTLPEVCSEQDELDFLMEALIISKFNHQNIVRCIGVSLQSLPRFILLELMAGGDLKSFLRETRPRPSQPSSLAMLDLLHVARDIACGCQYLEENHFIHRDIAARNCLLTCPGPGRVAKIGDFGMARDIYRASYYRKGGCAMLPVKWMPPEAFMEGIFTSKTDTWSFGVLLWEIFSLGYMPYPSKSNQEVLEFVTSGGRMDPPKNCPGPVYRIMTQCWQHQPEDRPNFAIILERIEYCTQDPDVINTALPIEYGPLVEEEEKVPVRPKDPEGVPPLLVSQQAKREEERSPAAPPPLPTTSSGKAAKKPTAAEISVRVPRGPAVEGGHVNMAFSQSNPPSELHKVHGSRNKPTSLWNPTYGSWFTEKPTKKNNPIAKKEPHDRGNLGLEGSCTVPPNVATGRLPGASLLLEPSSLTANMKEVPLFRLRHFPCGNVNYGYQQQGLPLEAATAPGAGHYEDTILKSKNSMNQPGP

Row | IC50 | SMILES
1 | 1 to 10 µM | N#Cc1c(-c2ccc(CCl)cc2)nc2[nH]nc(-c3ccc(C(F)(F)F)cc3)c2c1-c1ccc(N2CCNCC2)cc1 [Compound 290]
2 | 0.1 to 1 µM | N#Cc1c(-c2ccc(O)cc2)nc2[nH]ncc2c1-c1ccc(N2CCNCC2)cc1 [Compound 59]
3 | 0.1 to 1 µM | Cc1cc(O)ccc1-c1nc2[nH]nc(C)c2c(-c2ccc(N3CCNCC3)cc2)c1C#N [Compound 189]
4 | 1 to 10 µM | N#Cc1c(-c2cncs2)nc2[nH]nc(-c3cccs3)c2c1-c1ccc(N2CCNCC2)cc1 [Compound 280]
5 | < 0.1 µM | Cc1n[nH]c2nc(-c3ccc(O)cc3F)c(C#N)c(-c3ccc(N4CC[C@@H](N)C4)nc3)c12 [Compound 124]
6 | 0.1 to 1 µM | CNC1CCN(c2ccc(-c3n[nH]c4nc(-c5ccc(O)cc5F)c(C#N)c(C)c34)cn2)C1 (centres unmarked) [Compound 123]
7 | 0.1 to 1 µM | Cc1n[nH]c2nc(-c3ccc(OC(=O)c4ccccc4)cc3F)c(C#N)c(-c3ccc(N4CCNCC4)cc3)c12 [Compound 239]
8 | < 0.1 µM | CN1CCN(c2ccc(-c3c(C#N)c(-c4ccc(O)cc4F)nc4[nH]nc(N)c34)o2)CC1 [Compound 104]
9 | < 0.1 µM | Cc1cc(-c2nc3[nH]nc(-c4ccco4)c3c(-c3ccc(N4CCNCC4)cc3)c2C#N)ccc1O [Compound 251]
10 | < 0.1 µM | N#Cc1c(-c2ccc(O)cc2F)nc2[nH]ncc2c1-c1ccc(N2CCNCC2)cc1 [Compound 91]
11 | 0.1 to 1 µM | CN1CCN(c2ccc(-c3c(C#N)c(-c4ccc(O)cc4)nc4[nH]ncc34)o2)CC1 [Compound 82]
12 | 0.1 to 1 µM | N#Cc1c(-c2ccc(O)cc2F)nc2[nH]ncc2c1-c1ccc(CO)o1 [Compound 77]
13 | 0.1 to 1 µM | Cc1n[nH]c2nc(-c3ccc(O)cc3F)c(C#N)c(-c3cnc(N)s3)c12 [Compound 150]
14 | < 0.1 µM | N#Cc1c(-c2ccc(O)cc2F)nc2[nH]nc(N)c2c1-c1ccc(N2CCOCC2)o1 [Compound 183]
15 | < 0.1 µM | N#Cc1c(-c2ccc(O)cc2F)nc2[nH]nc(N)c2c1-c1ccc(N2CCNCC2)cc1F [Compound 181]
16 | < 0.1 µM | N#Cc1c(-c2ccc(O)cc2F)nc2[nH]ncc2c1-c1ccco1 [Compound 75]
17 | < 0.1 µM | N#Cc1c(-c2ccc(O)cc2F)nc2[nH]nc(-c3ccncc3)c2c1-c1ccc(N2CCNCC2)cc1 [Compound 201]
18 | 0.1 to 1 µM | Cc1n[nH]c2nc(-c3ccc(O)cc3)c(C#N)c(-c3ccc(-c4ccc(S(N)(=O)=O)cc4)o3)c12 [Compound 275]
19 | < 0.1 µM | N#Cc1c(-c2ccc(O)cc2F)nc2[nH]nc(N)c2c1-c1ccc(N2CCC(N3CCCC3)CC2)cc1 [Compound 200]
20 | 0.1 to 1 µM | N#Cc1c(-c2c(F)ccc(F)c2F)nc2[nH]nc(-c3cccs3)c2c1-c1ccc(N2CCNCC2)cc1 [Compound 221]
21 | 0.1 to 1 µM | CC(C)(C)c1n[nH]c2nc(-c3ccc(O)cc3F)c(C#N)c(-c3ccc(N4CCNCC4)cc3)c12 [Compound 230]
22 | 0.1 to 1 µM | COc1cc(-c2cc3[nH]ncc3c(-c3ccco3)c2C#N)ccc1O [Compound 74]
23 | > 10 µM | Cc1n[nH]c2nc(Cc3ccc(F)cc3F)c(C#N)c(-c3ccc(N4CCNCC4)cc3F)c12 [Compound 302]
24 | < 0.1 µM | COC(=O)c1c(-c2ccc(OC(=O)C3CC3)cc2F)nc2[nH]nc(C)c2c1-c1ccc(N2CCNCC2)cc1 [Compound 306]
25 | < 0.1 µM | COC(=O)c1c(-c2ccc(O)cc2)nc2[nH]nc(N)c2c1-c1ccc(N2CCN(C)CC2)cc1 [Compound 307]
26 | < 0.1 µM | COC(=O)c1c(-c2ccc(O)cc2)nc2[nH]nc(N)c2c1-c1ccc(N2CCNCC2)cc1 [Compound 305]
27 | 1 to 10 µM | N#Cc1c(-c2ccc(OC(=O)c3ccccc3)cc2F)nc2[nH]nc(N)c2c1-c1ccc(N2CCNCC2)cc1 [Compound 304]

Row | SMILES | IC50
28 | N#Cc1c(-c2ccc(O)cc2F)nc2[nH]nc(N)c2c1-c1ccc(C2=CCNCC2)cc1 [Compound 186] | < 0.1 µM

System: karpas 299 cells
Test: Measurement of inhibition of cell proliferation (Karpas), ATPlite
Format: cell-based
Conditions: Homo sapiens, KARPAS-299, 72 h
Description: Measurement of Inhibition of Cell Proliferation (Karpas):
The antiproliferative activities of the compounds were measured using the ATPlite technique (Perkin Elmer).
The non-adhering cells (karpas 299) are seeded in 96-well plates (300 000 cells/ml) on Day 1 at a concentration compatible with logarithmic growth for 72 hours required for evaluation of the compounds. All the cells are treated on Day 1, then placed in an incubator at 37° C. under 5% CO2 atmosphere. Cell viability is evaluated on Day 4 by assay of released ATP, characteristic of viable cells. The IC50 values are determined by non-linear regression on the basis of a sigmoid model of dose/response relationship, Hill's slope coefficient being left variable, performed using GraphPad software sequence with the supplied algorithm.

Row | IC50 | SMILES
29 | 1 to 10 µM | N#Cc1c(-c2ccc(CCl)cc2)nc2[nH]nc(-c3ccc(C(F)(F)F)cc3)c2c1-c1ccc(N2CCNCC2)cc1 [Compound 290]
30 | 1 to 10 µM | N#Cc1c(-c2ccc(O)cc2)nc2[nH]ncc2c1-c1ccc(N2CCNCC2)cc1 [Compound 59]
31 | 1 to 10 µM | Cc1cc(O)ccc1-c1nc2[nH]nc(C)c2c(-c2ccc(N3CCNCC3)cc2)c1C#N [Compound 189]
32 | 1 to 10 µM | N#Cc1c(-c2cncs2)nc2[nH]nc(-c3cccs3)c2c1-c1ccc(N2CCNCC2)cc1 [Compound 280]
33 | 1 to 10 µM | Cc1n[nH]c2nc(-c3ccc(O)cc3F)c(C#N)c(-c3ccc(N4CC[C@@H](N)C4)nc3)c12 [Compound 124]
34 | 1 to 10 µM | CNC1CCN(c2ccc(-c3n[nH]c4nc(-c5ccc(O)cc5F)c(C#N)c(C)c34)cn2)C1 (centres unmarked) [Compound 123]
35 | 0.1 to 1 µM | Cc1n[nH]c2nc(-c3ccc(OC(=O)c4ccccc4)cc3F)c(C#N)c(-c3ccc(N4CCNCC4)cc3)c12 [Compound 239]
36 | 1 to 10 µM | CN1CCN(c2ccc(-c3c(C#N)c(-c4ccc(O)cc4F)nc4[nH]nc(N)c34)o2)CC1 [Compound 104]
37 | 0.1 to 1 µM | Cc1cc(-c2nc3[nH]nc(-c4ccco4)c3c(-c3ccc(N4CCNCC4)cc3)c2C#N)ccc1O [Compound 251]
38 | 1 to 10 µM | N#Cc1c(-c2ccc(O)cc2F)nc2[nH]ncc2c1-c1ccc(N2CCNCC2)cc1 [Compound 91]
39 | 1 to 10 µM | CN1CCN(c2ccc(-c3c(C#N)c(-c4ccc(O)cc4)nc4[nH]ncc34)o2)CC1 [Compound 82]
40 | 1 to 10 µM | N#Cc1c(-c2ccc(O)cc2F)nc2[nH]ncc2c1-c1ccc(CO)o1 [Compound 77]
41 | > 10 µM | Cc1n[nH]c2nc(-c3ccc(O)cc3F)c(C#N)c(-c3cnc(N)s3)c12 [Compound 150]
42 | 1 to 10 µM | N#Cc1c(-c2ccc(O)cc2F)nc2[nH]nc(N)c2c1-c1ccc(N2CCOCC2)o1 [Compound 183]
43 | 1 to 10 µM | N#Cc1c(-c2ccc(O)cc2F)nc2[nH]nc(N)c2c1-c1ccc(N2CCNCC2)cc1F [Compound 181]
44 | 0.1 to 1 µM | N#Cc1c(-c2ccc(O)cc2F)nc2[nH]ncc2c1-c1ccco1 [Compound 75]
45 | > 10 µM | N#Cc1c(-c2ccc(O)cc2F)nc2[nH]nc(-c3ccncc3)c2c1-c1ccc(N2CCNCC2)cc1 [Compound 201]
46 | > 10 µM | Cc1n[nH]c2nc(-c3ccc(O)cc3)c(C#N)c(-c3ccc(-c4ccc(S(N)(=O)=O)cc4)o3)c12 [Compound 275]
47 | 0.1 to 1 µM | N#Cc1c(-c2ccc(O)cc2F)nc2[nH]nc(N)c2c1-c1ccc(N2CCC(N3CCCC3)CC2)cc1 [Compound 200]
48 | 1 to 10 µM | N#Cc1c(-c2c(F)ccc(F)c2F)nc2[nH]nc(-c3cccs3)c2c1-c1ccc(N2CCNCC2)cc1 [Compound 221]
49 | 1 to 10 µM | CC(C)(C)c1n[nH]c2nc(-c3ccc(O)cc3F)c(C#N)c(-c3ccc(N4CCNCC4)cc3)c12 [Compound 230]

Row | SMILES | IC50
50 | N#Cc1c(-c2ccc(O)cc2F)nc2[nH]nc(N)c2c1-c1ccc(C2=CCNCC2)cc1 [Compound 186] | 1 to 10 µM
